# Laboratory results published in patent publication US20210338686A1, “COMBINATION CANCER THERAPY WITH PENTAAZA MACROCYCLIC RING COMPLEX AND PLATINUM-BASED ANTICANCER AGENT” (Galera Labs, LLC, priority 2018, published 2021).
# Assays:
# [1] = test system: experimental model of colitis; settings: rats; Cuzzocrea et al. 2001; cited from earlier work
# [2] = test system: lethal total body irradiation; settings: adult mice, Thompson et al. 2010; cited from earlier work
# inflammation = settings: rat model; Salvemini et al. 1999; cited from earlier work
# [3] = test system: acute, radiation-induced oral mucositis; settings: hamster oral mucositis; Murphy et al. 2008; cited from earlier work
# [4] = test system: collagen-induced arthritis; settings: rat collagen-induced arthritis; Salvemini et al. 2001; cited from earlier work
# [5] = test system: H460 and H1299 (wild type) cells; assay: Hydrogen peroxide (P0-1 probe); type: cell-based, human; settings: FIGS. 9A-9D
# [6] = test system: H460 human non-small cell lung carcinoma (NSCLC) cells; assay: Survival of H460 cells in culture with GC4419 and cisplatin; type: cell-based; settings: 24 μM GC4419 added to cisplatin (indicated concentrations), 120 hrs, vs cisplatin alone; FIG. 1
# Description: After 120 hrs the surviving fraction of cells was determined.
# [7] = test system: PARP in H1299 (wild type) NSCLC cells; assay: PARP activation in H1299 (wild type) cells (Western blot); type: cell-based, human; settings: 24 hr
# [8] = test system: H1299 human NSCLC cells, modified to inducibly overexpress catalase (CAT) (H1299CAT); assay: Survival of H1299CAT cells with GC4419, cisplatin and catalase overexpression; type: cell-based; settings: 24 μM GC4419 added to cisplatin, 120 hrs, FIG. 2
# Excerpt: CAT overexpression in this line (H1299CAT) was induced by administration of doxycycline, which turned on transcription of the inserted catalase genes.
# [9] = test system: H460 and H1299 (wild type) cells; assay: Mitochondrial superoxide (MitoSOX probe, flow cytometer); type: cell-based, human; settings: FIGS. 8A-8D
# [10] = test system: H460 and H1299 (wild type) cells; assay: Total reactive oxygen species (CellROX probe, flow cytometer); type: cell-based, human; settings: FIGS. 7A-7D
# Description: After the treatments and incubations CellROX fluorogenic probes for total ROS were added for 30 minutes continued incubation and the CellROX signal was measured using a flow cytometer.
# [11] = test system: oral mucositis in head-and-neck cancer patients; settings: head-and-neck cancer patients undergoing chemoradiation therapy; Anderson 2015; cited from earlier work
# [12] = test system: PARP (poly (ADP ribosyl) polymerase) in H460 NSCLC cells; assay: PARP activation in H460 cells (Western blot, 89 kd active / 116 kd inactive form); type: cell-based, human; settings: 24 hr
# Excerpt: PARP is a nuclear enzyme involved in DNA repair of single strand breaks and is activated following cell stress including chemotherapy and irradiation.
# [13] = test system: athymic female Nu/Nu (nude) mice implanted with SQ20B human head and neck squamous cell carcinoma cells; assay: Cisplatin-induced hematotoxicity in nude mice bearing SQ20B tumors; type: in vivo; settings: 10 mg/kg GC4419 every day added to cisplatin + IR
# Description: 7 week old athymic female Nu/Nu (nude) mice were implanted in a hind leg with SQ20B human head and neck squamous cell carcinoma cells. […] Mice were assessed for blood counts by tail vein blood collection either 2 days or 2 weeks after the treatment period.
# [14] = test system: VEGFr inhibitor-induced pulmonary disease; settings: rat model; Tuder et al. 2003; cited from earlier work
# PARP in H1299CAT cells = assay: PARP activation in H1299CAT cells with doxycycline induction of CAT overexpression; type: cell-based, human; settings: CAT induced with doxycycline, 24 hr
# Excerpt: When treated with doxcycline, H1299CAT cells express greater levels of human catalase (CAT) than the “parent” cells, H1299 (wild type), eliminating all or part of the H2O2 generated from superoxide by GC4419 or other Mn pentaazamacrocyclic dismutase mimetcs.
# [15] = test system: cisplatin-induced acute kidney injury (AKI) model, male C57BL/6J mice; assay: Cisplatin-induced acute kidney injury (AKI) model in mice; type: in vivo
# Excerpt: 4 month old male C57BL/6J mice (young) were purchased from Jackson Laboratories and 18 month old mice (old) were obtained as collaboration with Dr. Amy Sindler (University of Iowa) from the National institute of Aging. All mice were maintained in accordance with ACURF approval #4121235 at the University of Iowa Animal Care facility. Mice were maintained on normal diets and water ad libitum through the course of the experiment.
# Animals were weighed every other day following the start of treatment with GC4419.
# [16] = 24 μM GC4419, both cancer cell lines
# [17] = 10 mg/kg GC4419 daily from 4 days prior to 10 mg/kg cisplatin, 72 hours after cisplatin, FIG. 10A
# [18] = 1 μM cisplatin or cisplatin plus 6 Gy IR
smiles,measurement,setting,value
[Cl-].[Cl-].[Mn+2].c1cc2nc(c1)CN[C@@H]1CCCC[C@H]1NCCN[C@@H]1CCCC[C@H]1NC2 [GC4403],injury to the colon,[1],very significantly reduce the injury to the colon
same,radiation damage,[2],attenuate the radiation damage
same,inflammation,inflammation,inhibit inflammation
same,radiation damage,[3],attenuate the radiation damage
same,joint disease,[4],prevent joint disease
[Cl][Mn][Cl].c1cc2nc(c1)CN[C@H]1CCCC[C@@H]1NCCN[C@H]1CCCC[C@@H]1NC2 [GC4419],basal levels of H2O2,[5]; [16],significantly increases both the basal levels of H2O2
same,H2O2,"[5]; 24 μM GC4419 added to cisplatin or cisplatin plus IR, both cancer cell lines",significantly further increases the increase in H2O2
same,surviving fraction of cells,[6],decreased the surviving fraction of H460 cells
same,PARP activity (ratio of 89 kd active form to 116 kd inactive form),"[7]; 24 μM GC4419 added to 10 μM cisplatin, vs cisplatin, FIG. 4",further and significantly p<0.01) increased PARP activity
same,PARP activity (ratio of 89 kd active form to 116 kd inactive form),"[7]; 24 μM GC4419 added to 6 Gy IR + 1 μM cisplatin, FIG. 6A",significantly increased (p<0.0.05)
same,PARP activity (ratio of 89 kd active form to 116 kd inactive form),"[7]; 24 μM GC4419 added to 6 Gy IR, vs radiation alone, FIG. 6A",significantly increased PARP activity over that seen with radiation alone
same,surviving fraction of cells,[8]; with CAT overexpression (doxycycline induced),abrogated the GC4419 contribution to cisplatin response
same,surviving fraction of cells,"[8]; without CAT overexpression (wt), vs cisplatin alone",decreased the surviving fraction
same,basal levels of mitochondrial superoxide (MitoSOX signal),[9]; [16],significantly reduced the basal levels of mitochondrial superoxide
same,mitochondrial superoxide (MitoSOX signal),[9]; 24 μM GC4419 added to cisplatin or cisplatin plus IR,significantly reduced the increase in mitochondrial superoxide
same,total ROS (CellROX signal),[10]; 24 μM GC4419 added to cisplatin therapy,synergistic effect on total ROS
same,total ROS (CellROX signal),"[10]; 24 μM GC4419 used alone, either cancer cell line",little effect on total ROS
same,oral mucositis,[11],reduce oral mucositis
same,PARP activity (ratio of 89 kd active form to 116 kd inactive form),"[12]; 24 μM GC4419 added to 1 μM cisplatin, vs cisplatin, FIG. 3",further and significantly (p<0.01) increased PARP activity
same,PARP activity (ratio of 89 kd active form to 116 kd inactive form),"[12]; 24 μM GC4419 added to 6 Gy IR + 1 μM cisplatin, FIG. 5",significantly increased (p<0.01)
same,PARP activity (ratio of 89 kd active form to 116 kd inactive form),"[12]; 24 μM GC4419 added to 6 Gy IR, vs radiation alone, FIG. 5",significantly increased PARP activity over that seen with radiation alone
same,leukocyte (WBC) and lymphocyte count,"[13]; 2 days and 2 weeks after the end of treatment, FIG. 11B",stimulated leukocyte (WBC) and proportionally lymphocyte subset production
same,neutrophil percentage,[13]; FIG. 11C,maintained neutrophil percentage at apparently normal levels
same,eosinophil percentage,[13]; FIG. 11D,maintained eosinophil percentage at apparently normal levels
same,platelets,"[13]; two days after the end of treatments, FIG. 11A",significantly restored platelet levels
same,VEGFr inhibitor-induced pulmonary disease,[14],attenuate VEGFr inhibitor-induced pulmonary disease
same,PARP activation response to cisplatin,"PARP in H1299CAT cells; 24 μM GC4419 + 1 μM cisplatin, p<0.01, FIG. 6B",reduced the PARP activation response
same,PARP activation response to IR+cisplatin,"PARP in H1299CAT cells; 24 μM GC4419 + 6 Gy IR + 1 μM cisplatin, p<0.001, FIG. 6C",reduced the PARP activation response
same,PARP activation response to IR,"PARP in H1299CAT cells; 24 μM GC4419 + 6 Gy IR, p<0.05, FIG. 6C",reduced the PARP activation response
same,survival,"[15]; 10 mg/kg GC4419 daily + 10 mg/kg cisplatin, old mice, FIG. 10D",prevented cisplatin mortality in the old mice
same,body weight,"[15]; 10 mg/kg GC4419 daily + 10 mg/kg cisplatin, young and old mice, FIG. 10C",reduced the amount of weight loss in both sets of mice
same,kidney injury biomarkers KIM1 and NGAL,"[15]; 10 mg/kg GC4419 daily + 10 mg/kg cisplatin, FIG. 10B",prevented that injury
same,creatinine level,[15]; [17],completely prevented these increases
same,whole blood urea nitrogen (BUN) level,[15]; [17],completely prevented these increases
"N.N.[Cl][Pt][Cl] [cisplatin, reference compound]",H2O2,[5]; [18],increase in H2O2
same,mitochondrial superoxide (MitoSOX signal),[9]; [18],increase in mitochondrial superoxide
same,total ROS (CellROX signal),[10]; [18],increased total ROS
